Measured values published in ChEMBL document CHEMBL1201862, “PubChem BioAssay data set” (2004).
The source made the active and inactive calls.

Experiments:
[1] = Luminescence Cell-Based Dose-Confimation HTS to Identify Inhibitors of 5'UTR Stem-Loop Driven Alpha-Synuclein mRNA Translation in H4 Neuroglioblastoma Cells. [Related pubchem assays: 1827 (Project Summary), 1813 (Primary HTS)]; assay type: functional
[2] = inhibitors of intracellular T. cruzi replication, confirmation, NIH3T3 host cells, beta-gal luminescence (AID 2044); assay type: functional, cell-based;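 note: intracellular parasites grown in NIH/3T3 mouse fibroblasts as host cells; luminescent beta-galactosidase reporter signal from transgenic T. cruzi replicating inside host cells; inhibitors lower the luminescence signal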
[3] = cytotoxicity toward NIH3T3 fibroblasts, dose response, counter-screen, cell-based, ATP luminescence, mouse fibroblasts (AID 2010); assay type: functional;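 note: cells exposed to compound for about 90 hours before reading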
[4] = biological target: 5-hydroxytryptamine receptor 1E (Homo sapiens, UniProt P28566); assay: Counterscreen assay for S1P3 antagonists: Dose response cell-based high throughput screening assay to identify antagonists of the 5-Hydroxytryptamine Receptor Subtype 1E (5HT1E). [Related pubchem assays: 1429, 485 ]; assay type: functional
Sequence of 5-hydroxytryptamine receptor 1E (P28566 whole entry): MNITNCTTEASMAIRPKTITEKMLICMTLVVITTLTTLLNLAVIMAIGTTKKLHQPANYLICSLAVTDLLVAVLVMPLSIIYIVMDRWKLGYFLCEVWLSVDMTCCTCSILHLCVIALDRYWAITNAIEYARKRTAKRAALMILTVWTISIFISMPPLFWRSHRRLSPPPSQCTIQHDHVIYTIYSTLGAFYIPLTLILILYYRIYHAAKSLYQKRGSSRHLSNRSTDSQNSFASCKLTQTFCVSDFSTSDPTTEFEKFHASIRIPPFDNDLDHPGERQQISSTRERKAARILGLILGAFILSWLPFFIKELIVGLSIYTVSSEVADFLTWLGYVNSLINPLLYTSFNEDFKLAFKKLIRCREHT

[5] = biological target: Sphingosine 1-phosphate receptor 3 (Homo sapiens, UniProt Q99500); assay: Dose response cell-based high throughput screening assay for antagonists of the Sphingosine 1-Phosphate Receptor 3 (S1P3). [Related pubchem assays: 1429, 485 ]; assay type: functional
Sequence of Sphingosine 1-phosphate receptor 3 (Q99500 whole entry): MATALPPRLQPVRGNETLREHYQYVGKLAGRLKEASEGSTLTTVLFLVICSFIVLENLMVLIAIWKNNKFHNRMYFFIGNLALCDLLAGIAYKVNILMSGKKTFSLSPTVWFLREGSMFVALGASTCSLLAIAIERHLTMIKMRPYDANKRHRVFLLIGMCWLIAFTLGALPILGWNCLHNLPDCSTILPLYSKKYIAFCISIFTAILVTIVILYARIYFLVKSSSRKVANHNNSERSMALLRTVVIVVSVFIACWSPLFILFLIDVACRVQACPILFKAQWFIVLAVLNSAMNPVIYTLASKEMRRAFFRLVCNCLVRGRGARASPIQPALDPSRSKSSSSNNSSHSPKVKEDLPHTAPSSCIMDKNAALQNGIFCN

INS1 = assay: beta cell apoptosis inhibitors, cytokine rescue, dose response, luminescence, retest (AID 449756); assay type: functional, cell-based; conditions: Rattus norvegicus;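 note: cell death triggered by IL-1 beta plus TNF-alpha plus IFN-gamma mixture; protective hits raise ATP signal compared with cytokine alone wells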
Bcl-2-related protein A1 [6] = biological target: T1, Bcl-2-related protein A1 (Mus musculus, UniProt Q07440); assay: Bfl-1 inhibitors blocking BH3 peptide binding, confirmation, biochemical, TR-FRET, mouse Bfl-1 (AID 621);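 note: TR-FRET binding of GST-Bfl-1 to FITC-labelled Bid peptide via terbium antibody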
T1 sequence (Q07440 whole entry): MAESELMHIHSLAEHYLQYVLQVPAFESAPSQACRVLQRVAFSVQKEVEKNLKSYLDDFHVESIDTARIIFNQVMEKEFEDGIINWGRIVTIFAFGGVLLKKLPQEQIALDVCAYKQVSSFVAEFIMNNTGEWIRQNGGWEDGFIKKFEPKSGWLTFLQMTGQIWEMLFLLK

[7] = biological target: Glyceraldehyde-3-phosphate dehydrogenase (Homo sapiens, UniProt P04406)
Sequence of Glyceraldehyde-3-phosphate dehydrogenase (P04406 whole entry): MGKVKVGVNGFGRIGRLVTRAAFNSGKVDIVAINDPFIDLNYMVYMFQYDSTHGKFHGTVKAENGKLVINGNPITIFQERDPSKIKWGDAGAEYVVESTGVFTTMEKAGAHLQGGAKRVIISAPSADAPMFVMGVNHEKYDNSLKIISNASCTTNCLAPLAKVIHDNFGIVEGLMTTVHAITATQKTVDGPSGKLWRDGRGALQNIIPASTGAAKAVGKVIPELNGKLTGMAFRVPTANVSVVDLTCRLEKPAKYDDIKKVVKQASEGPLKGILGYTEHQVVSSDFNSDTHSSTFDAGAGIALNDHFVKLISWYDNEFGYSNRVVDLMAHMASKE

Bcl-2-related protein A1 [8] = biological target: T1, Bcl-2-related protein A1; assay: Bfl-1 binding inhibitors, SAR follow-up, biochemical, fluorescence polarization (AID 1070)
[9] = A Cell Based Assay for the Identification of Probe candidate Compounds with Anti- Venezuelan Equine Encephalitis virus. [Related pubchem assays: 2409, 2419, 1621, 2238, 2405, 2024, 2065, 2402, 2414, 1635, 1650, 2244 ]; assay type: functional
Vero = assay: cytotoxicity of synthesized analogs in Vero cells, SAR follow-up, cytotoxicity control for West Nile virus antiviral project, cell-based, set II (AID 2402); assay type: functional; conditions: Chlorocebus sabaeus
[10] = MC4R antagonists, dose response, counter-screen for LGR2 antagonist project, cell-based, plate reader, cherry pick (AID 743444); assay type: functional;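 note: transfected HEK 293 cells stimulated with alpha-MSH peptide; potency of inhibitors of the alpha-MSH evoked signal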
[11] = HEK293 cell cytotoxicity, dose response, cytotoxicity control, plate reader, cherry-picked samples (AID 743446); assay type: functional, cell-based
[12] = HepG2 cell cytotoxicity, dose response, cytotoxicity control, plate reader, cherry-pick, antagonist series (AID 743416); assay type: functional, cell-based
[13] = LGR2 antagonists, dose response, cell-based, HEK293, CRE-luciferase reporter, cherry pick, set 2 (AID 743343); assay type: functional;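 note: transfected cells were stimulated with diluted bursicon conditioned medium after compound addition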
[14] = A549 cell cytotoxicity, dose response, cytotoxicity control, plate reader, cherry-pick, antagonist series (AID 743412); assay type: functional, cell-based
[15] = Luminescence-based counterscreen assay for KLF5 inhibitors: dose response cell-based high throughput screening assay to identify cytotoxic compounds using the IEC-6 intestinal epithelial cell line. [Related pubchem assays: 1700 (Primary screen.), 1834 (Confirmation screen.), 1858 (Summary AID.), 1905 (Counterscreen.)]; assay type: functional
Bcl-2-like protein 10 = Bcl-2-like protein 10 (Homo sapiens, UniProt Q9HD36); assay: Biochemical TR3 FP assay of Bcl-B inhibitor potency, EC50 (AID 1243); assay type: functional
Sequence of Bcl-2-like protein 10 (Q9HD36 whole entry): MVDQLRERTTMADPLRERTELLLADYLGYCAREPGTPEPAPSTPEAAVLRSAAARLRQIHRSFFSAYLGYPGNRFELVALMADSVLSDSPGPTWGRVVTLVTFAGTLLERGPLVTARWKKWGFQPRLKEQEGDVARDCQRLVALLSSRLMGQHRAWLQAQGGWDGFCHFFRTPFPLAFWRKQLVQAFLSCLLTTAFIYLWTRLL

[16] = biological target: 26S proteasome non-ATPase regulatory subunit 14 (Homo sapiens, UniProt O00487); assay: inhibition of proteasome subunit RPN11 – biochemical, fluorescence polarization, uHTS hits, confirmation (AID 602368); assay type: functional
Sequence of 26S proteasome non-ATPase regulatory subunit 14 (O00487 whole entry): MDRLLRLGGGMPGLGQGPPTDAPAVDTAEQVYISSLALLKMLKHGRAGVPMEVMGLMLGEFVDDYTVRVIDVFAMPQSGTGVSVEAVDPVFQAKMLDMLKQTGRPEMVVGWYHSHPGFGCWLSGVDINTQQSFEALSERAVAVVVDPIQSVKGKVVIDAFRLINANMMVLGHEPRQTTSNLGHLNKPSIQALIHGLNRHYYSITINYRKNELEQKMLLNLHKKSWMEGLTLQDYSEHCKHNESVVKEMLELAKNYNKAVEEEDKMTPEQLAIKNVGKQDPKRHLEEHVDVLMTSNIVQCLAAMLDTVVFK

Prothrombin = Prothrombin (Bos taurus, UniProt P00735); assay: thrombin inhibition, dose response, biochemical, fluorescence polarization, uHTS hits (AID 602369); assay type: functional
[17] = biological target: T2, Voltage-gated N-type calcium channel alpha-1B subunit/Amyloid beta A4 precursor protein-binding family A member 1 (Homo sapiens, UniProt Q00975+Q02410); assay type: protein assay
T2 sequence (Q00975 whole entry): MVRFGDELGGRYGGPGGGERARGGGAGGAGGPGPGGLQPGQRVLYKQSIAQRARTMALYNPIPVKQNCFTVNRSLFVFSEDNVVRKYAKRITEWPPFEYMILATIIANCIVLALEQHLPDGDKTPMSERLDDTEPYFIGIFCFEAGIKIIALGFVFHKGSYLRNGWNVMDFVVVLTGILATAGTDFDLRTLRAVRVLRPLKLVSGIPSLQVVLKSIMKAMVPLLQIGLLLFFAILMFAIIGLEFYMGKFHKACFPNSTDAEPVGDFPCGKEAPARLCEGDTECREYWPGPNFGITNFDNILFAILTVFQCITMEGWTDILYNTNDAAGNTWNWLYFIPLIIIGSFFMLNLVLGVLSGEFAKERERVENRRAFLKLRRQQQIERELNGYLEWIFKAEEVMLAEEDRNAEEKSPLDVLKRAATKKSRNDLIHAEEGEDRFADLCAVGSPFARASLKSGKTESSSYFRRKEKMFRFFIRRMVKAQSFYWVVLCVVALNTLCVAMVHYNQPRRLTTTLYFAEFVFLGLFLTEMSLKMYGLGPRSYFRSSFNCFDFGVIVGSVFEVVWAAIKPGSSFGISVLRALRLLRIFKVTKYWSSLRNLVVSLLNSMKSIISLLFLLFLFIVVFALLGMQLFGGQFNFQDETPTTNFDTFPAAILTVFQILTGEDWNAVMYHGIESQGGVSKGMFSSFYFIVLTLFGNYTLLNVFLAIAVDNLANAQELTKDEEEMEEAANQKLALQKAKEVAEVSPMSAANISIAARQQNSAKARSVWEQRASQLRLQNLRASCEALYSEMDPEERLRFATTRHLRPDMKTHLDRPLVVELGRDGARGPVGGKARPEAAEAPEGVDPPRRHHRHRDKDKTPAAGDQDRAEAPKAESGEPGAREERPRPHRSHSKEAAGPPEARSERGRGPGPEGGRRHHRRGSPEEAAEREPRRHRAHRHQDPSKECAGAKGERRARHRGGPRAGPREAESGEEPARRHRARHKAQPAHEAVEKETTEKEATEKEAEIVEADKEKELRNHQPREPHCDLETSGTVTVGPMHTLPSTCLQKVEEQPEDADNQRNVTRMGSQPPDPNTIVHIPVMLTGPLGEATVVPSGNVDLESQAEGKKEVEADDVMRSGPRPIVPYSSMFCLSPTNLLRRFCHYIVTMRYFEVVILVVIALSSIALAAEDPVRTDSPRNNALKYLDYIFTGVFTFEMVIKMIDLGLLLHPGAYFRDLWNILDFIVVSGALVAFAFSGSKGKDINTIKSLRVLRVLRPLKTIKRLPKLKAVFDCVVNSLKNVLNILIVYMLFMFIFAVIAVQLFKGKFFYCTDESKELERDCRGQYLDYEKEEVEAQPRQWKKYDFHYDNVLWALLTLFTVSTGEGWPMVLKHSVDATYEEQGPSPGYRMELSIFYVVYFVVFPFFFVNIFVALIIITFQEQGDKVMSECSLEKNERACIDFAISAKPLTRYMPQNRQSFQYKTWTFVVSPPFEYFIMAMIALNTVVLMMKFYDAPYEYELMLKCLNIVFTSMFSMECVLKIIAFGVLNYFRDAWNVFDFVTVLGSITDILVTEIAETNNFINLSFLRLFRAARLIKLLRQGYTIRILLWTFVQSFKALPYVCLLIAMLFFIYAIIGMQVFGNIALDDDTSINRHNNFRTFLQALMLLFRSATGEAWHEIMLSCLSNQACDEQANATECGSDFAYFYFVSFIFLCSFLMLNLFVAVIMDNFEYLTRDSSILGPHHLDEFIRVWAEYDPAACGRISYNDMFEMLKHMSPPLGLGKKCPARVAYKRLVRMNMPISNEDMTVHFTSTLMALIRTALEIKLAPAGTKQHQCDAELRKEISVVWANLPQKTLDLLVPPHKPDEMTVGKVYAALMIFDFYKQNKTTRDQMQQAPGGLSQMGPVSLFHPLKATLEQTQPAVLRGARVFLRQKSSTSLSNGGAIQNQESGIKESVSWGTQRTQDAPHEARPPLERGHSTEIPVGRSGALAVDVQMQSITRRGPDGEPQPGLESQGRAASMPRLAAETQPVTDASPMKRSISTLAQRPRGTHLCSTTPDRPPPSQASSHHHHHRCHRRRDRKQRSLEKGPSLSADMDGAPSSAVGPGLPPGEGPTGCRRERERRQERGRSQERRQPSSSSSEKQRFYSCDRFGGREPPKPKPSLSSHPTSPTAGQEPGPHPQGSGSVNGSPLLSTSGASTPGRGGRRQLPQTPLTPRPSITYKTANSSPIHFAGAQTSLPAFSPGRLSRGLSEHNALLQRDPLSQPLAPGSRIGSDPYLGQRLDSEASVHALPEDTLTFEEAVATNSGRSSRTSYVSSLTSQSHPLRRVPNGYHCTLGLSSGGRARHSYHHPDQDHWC
T2 sequence (Q02410 whole entry): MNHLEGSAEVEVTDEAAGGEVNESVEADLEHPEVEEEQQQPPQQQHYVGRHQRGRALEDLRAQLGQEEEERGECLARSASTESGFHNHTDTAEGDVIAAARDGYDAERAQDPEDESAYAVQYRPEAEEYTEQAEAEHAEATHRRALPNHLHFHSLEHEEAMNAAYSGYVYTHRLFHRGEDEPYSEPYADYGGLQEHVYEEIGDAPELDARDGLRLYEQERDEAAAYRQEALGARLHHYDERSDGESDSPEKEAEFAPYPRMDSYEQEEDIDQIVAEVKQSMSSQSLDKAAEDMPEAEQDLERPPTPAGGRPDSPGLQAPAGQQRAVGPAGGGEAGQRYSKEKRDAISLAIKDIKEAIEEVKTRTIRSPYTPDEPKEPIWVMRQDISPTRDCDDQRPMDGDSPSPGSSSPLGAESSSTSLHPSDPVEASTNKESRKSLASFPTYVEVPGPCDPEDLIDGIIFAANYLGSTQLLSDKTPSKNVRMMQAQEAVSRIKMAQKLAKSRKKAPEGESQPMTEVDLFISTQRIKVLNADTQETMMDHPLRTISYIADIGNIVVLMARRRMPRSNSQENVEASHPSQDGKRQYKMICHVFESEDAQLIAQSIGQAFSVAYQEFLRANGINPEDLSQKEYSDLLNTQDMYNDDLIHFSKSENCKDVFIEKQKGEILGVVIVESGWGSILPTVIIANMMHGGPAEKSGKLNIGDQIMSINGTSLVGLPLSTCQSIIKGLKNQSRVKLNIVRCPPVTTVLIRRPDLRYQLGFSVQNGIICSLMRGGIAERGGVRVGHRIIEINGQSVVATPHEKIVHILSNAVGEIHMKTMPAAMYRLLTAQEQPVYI

[18] = biological target: T2, Voltage-gated N-type calcium channel alpha-1B subunit/Amyloid beta A4 precursor protein-binding family A member 1; assay type: protein assay; remark: listed apart in the source
[19] = biological target: 72 kDa type IV collagenase (Homo sapiens, UniProt P08253); assay: Dose Response validation of uHTS RPN11 inhibitor hits using a MMP-2 Fluorescence assay.; assay type: functional
[20] = biological target: T3, Carboxy-terminal domain RNA polymerase II polypeptide A small phosphatase 1 (Homo sapiens, UniProt Q9GZU7); assay: inhibitors of CTDSP1, concentration-response testing, biochemical assay, absorbance-based, actives from ultra-high-throughput screening (AID 540297); assay type: functional
T3 sequence (Q9GZU7 whole entry): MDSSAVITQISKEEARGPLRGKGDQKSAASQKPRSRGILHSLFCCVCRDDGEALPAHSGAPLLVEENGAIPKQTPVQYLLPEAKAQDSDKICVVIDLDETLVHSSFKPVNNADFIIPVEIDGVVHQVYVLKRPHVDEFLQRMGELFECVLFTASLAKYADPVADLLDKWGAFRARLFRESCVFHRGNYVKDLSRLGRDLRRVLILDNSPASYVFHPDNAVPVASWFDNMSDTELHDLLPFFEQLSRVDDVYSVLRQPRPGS

[21] = A High Throughput Confirmatory Assay used to Identify Novel Compounds that Inhibit Mycobacterium Tuberculosis in the absence of Glycerol.; assay type: functional
[22] = biological target: T4, Heat shock factor protein 1 (Mus musculus, UniProt P38532); assay: inhibition of MG132-induced HSE-luciferase signal, confirmation, cell-based, NIH3T3, luminescence, dose retest (AID 2382); assay type: functional;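 note: NIH3T3 fibroblasts with HSF1-driven luciferase reporter stressed by proteasome inhibitor MG132; luminescence from HSF1-driven luciferase expression after 8 hours of MG132 stress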
T4 sequence (P38532 whole entry): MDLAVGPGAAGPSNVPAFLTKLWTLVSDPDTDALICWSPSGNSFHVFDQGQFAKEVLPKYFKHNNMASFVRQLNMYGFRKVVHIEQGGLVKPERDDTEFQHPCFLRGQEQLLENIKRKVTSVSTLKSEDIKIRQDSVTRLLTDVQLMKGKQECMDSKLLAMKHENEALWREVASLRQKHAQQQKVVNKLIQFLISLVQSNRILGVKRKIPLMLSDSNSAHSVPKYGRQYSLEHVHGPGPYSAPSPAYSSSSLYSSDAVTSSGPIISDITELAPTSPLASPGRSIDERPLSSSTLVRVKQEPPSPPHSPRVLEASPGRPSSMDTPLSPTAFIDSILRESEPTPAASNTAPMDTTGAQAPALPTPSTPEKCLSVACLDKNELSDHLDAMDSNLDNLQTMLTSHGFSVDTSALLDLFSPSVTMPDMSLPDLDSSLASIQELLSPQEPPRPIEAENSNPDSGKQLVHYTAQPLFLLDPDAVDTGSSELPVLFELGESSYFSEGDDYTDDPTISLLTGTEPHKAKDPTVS

Question: For `CC(C)c1ccc(-n2nnnc2SCc2nc(N)nc(N)n2)cc1`, which EC50 [1] is on record?
Answer: Its EC50 is > 100 µM (not active).

Question: Which results are given for `O=C(Nc1ccc(OC(F)F)c(Cl)c1)C(c1ccccc1)c1ccccc1`?
Answer: EC50 [2]: 1.29 µM (active); EC50 [3]: > 60 µM (inconclusive); IC50 [4]: 1.25 µM (active); IC50 [5]: 4.07 µM (active); AC50 (INS1): 8.95 µM (active)

Question: Which IC50 (Bcl-2-related protein A1 [6]) does the source give for `O=C1C(Cl)=C(N2CCN(c3ccccc3)CC2)C(=O)N1c1ccc(Cl)c(Cl)c1` here?
Answer: The IC50 was 4.13 µM (active).

Question: And the IC50 [7]?
Answer: The IC50 was > 100 µM (not active).

Question: And the IC50 (Bcl-2-related protein A1 [8])?
Answer: The IC50 was 4.95 µM (active).

Question: What does the source list for `COc1ccc(Cn2nc(C)cc2OC(=O)c2c(F)cccc2F)cc1`?
Answer: IC50 [9]: > 133 µM (active); CC50 (Vero): > 200 µM (active)

Question: Which AC50 [10] does the source give for `Cc1ccc(C(=O)Nc2nc3ccccc3[nH]2)cc1` here?
Answer: Its AC50 is 1.45 µM (active).

Question: What about the AC50 [11] of the same molecule?
Answer: The AC50 was 29.2 µM (active).

Question: And the AC50 [12]?
Answer: Its AC50 is > 52 µM (inactive).

Question: And the AC50 [13]?
Answer: Its AC50 is 1.29 µM (active).

Question: What about the AC50 [14] of the same molecule?
Answer: Its AC50 is 35.2 µM (active).

Question: And the IC50 [15]?
Answer: Its IC50 is > 13.3 µM (not active).

Question: Which EC50 (Bcl-2-like protein 10) does the source give for `Cc1c(Cl)ccc2c1NC(C(=O)O)C1CC=CC21` (stereo unspecified) here?
Answer: The EC50 was 5.21 µM (active).

Question: What does the source list for `CC(=O)Oc1ccc(/C=N\NC(=O)c2cc3c(ccc4ccccc43)o2)cc1`?
Answer: IC50 [16]: 10.9 µM (active); IC50 (Prothrombin): 75.6 µM (active); IC50 [17]: 4.06 µM (active); IC50 [18]: > 50 µM (inactive); IC50 [19]: 30 µM (active); IC50 [20]: 4.3 µM (active); IC50 [21]: > 100 µM (active); EC50 [22]: > 195 µM (not active)
